Measurements as given in PMC4227698, “Poly(Ethylene Glycol) as a Scaffold for High-Affinity Open-Channel Blockers of the Mouse Nicotinic Acetylcholine Receptor” (PLoS ONE, 2014).
Read-outs that look alike come from different tables or passages of the source.

Key:
muscle-type AChR = details: cited from earlier work; for blocking rate constant k+B / unblocking rate constant k–B: ref Table S1 refs 1-12
[1] = target: T1, adult mouse muscle AChR (α, β, δ, ε) (Mus musculus, UniProt P02716+P04756+P09690+P20782, V433A); experiment: Single-channel patch-clamp analysis of open-channel blockade of AChRs expressed in HEK-293 cells; format: cell-based; details: for effect on apparent mean open time (τapp): 100 µM ACh with 5, 10 or 20 µM PEG-QA; for unblocking rate constant k–B / blocking rate constant k+B: cell-attached; for unblocking rate constant k–B: average of unblocking rates at all tested concentrations; for blocking rate constant k+B: slope of linear fit of blocking rates
T1 construct: expressed in transfected cells; host or cells: HEK-293 cells (ATCC CRL-1573), transient calcium phosphate transfection, α:β:δ:ε = 2:1:1:1
Procedure: The cDNA clones of adult mouse muscle AChR subunits (α, β, δ, ε) in the vector pRBG4 were generously provided by Professor Anthony Auerbach (University at Buffalo, NY). […] Human embryonic kidney cells (HEK-293 cells, ATCC CRL-1573) were transiently transfected by calcium phosphate precipitation. In brief, HEK-293 cells were maintained in Dulbecco's […] (Invitrogen) supplemented with 10% Fetal Bovine Serum (Invitrogen) at 37°C and 5% CO2. Cells were plated 24 h before transfection to reach a confluence of 40–60%. A total of 3.5 µg DNA per 35-mm culture dish (α:β:δ:ε = 2∶1∶1∶1) was used. […] The medium was changed 24 h after the addition of DNA, and patch-clamp recordings were carried out 20–36 h thereafter.
Single-channel currents from AChRs were recorded using patch-clamp techniques in the cell-attached configuration. For dose-dependence measurements, a holding potential of +70 mV was applied. Kinetic analysis of single-channel currents was carried out using the QuB suite, [12]. The currents were idealized using the segmented k-means (SKM) hidden Markov algorithm at full bandwidth (10 kHz). Kinetic modeling of the idealized intervals was performed using the maximum interval likelihood (MIL) method, [12]. Additional details of recording and data analysis are provided in File S1.
MIL analysis on 2–4 cells was performed to determine the apparent mean open time (τapp), blocking rate, and unblocking rate for each measuring condition (reported as mean ± SEM). Uncertainties in the blocking rate constant (k+B values in Figure 2F) are reported as the standard errors in the least squares fits.
To test this hypothesis, we characterized the blockade kinetics of a series of PEG-QA conjugates (PQ1–PQ5; Figure 1) using patch-clamp electrophysiology. These conjugates were prepared from a short PEG, octa (ethylene glycol), through a three-step conversion (File S1). The chosen QA groups are small relative to the backbone length, and the hydrodynamic radii of these compounds are therefore expected to be similar. The kinetics and microscopic equilibrium affinity of channel blockade were determined by analyzing the acetylcholine (ACh)-elicited currents at the single-channel level. Channel activities were measured at 100 µM ACh in the absence or presence of 5, 10, or 20 µM of PEG-QA. […] The brief gaps within the clusters represent channel closing events.
Typical open-channel blockers follow a sequential blockade mechanism: the channel opens in response to ACh binding, and the blocker reversibly binds and dissociates from the transmembrane pore before the channel closes (Figure 1 and File S1). […] A new population of non-conducting blockade events, in addition to the brief closing and the long desensitized dwells, is also observed. These blockade events manifest themselves as a new component in the closed-time histogram. The relative area of the blockade component increases with increasing blocker concentration (reflecting the concentration-dependent rate of pore blockade), while the lifetime of this component (τB) is independent of blocker concentration (reflecting the unimolecular nature of blocker dissociation). These kinetic features allow the blocking and unblocking rate constants (k+B and k–B, respectively) to be determined by fitting of the dwell times under each set of conditions (File S1). […]
were amplified (Axopatch 200B, Axon Instruments, Foster City, CA), low-pass filtered at 10 kHz, and digitized at 20 kHz (NI 6040 E Data Acquisition Board, National Instruments, Austin, TX). Data were recorded directly to a desktop PC hard drive using the QuB software (www.qub.buffalo.edu).
1.3. Analysis of single-channel data (see also: Figure S1)
Kinetic analysis of single-channel currents was carried out using the QuB suite. The currents were idealized using the segmented k-means (SKM) hidden Markov algorithm at full bandwidth (10 kHz). Kinetic modeling of the idealized intervals […]

[2] = target: T1, adult mouse muscle AChR (α, β, δ, ε); experiment: Agonist potency of PEG-QA alone, single-channel recording; format: cell-based; details: 10 µM in the pipette solution without other agonists, +70 mV
From the text: Various QA compounds, including the prototype PEG-QA (PQ0), have been previously reported as agonists for the muscle-type AChR [8], [19], [26]–[28]. […] The agonist potencies of PEG-QAs correlate roughly inversely with the size of their QA groups (except PQ4; Figure S4). […] The low agonist potencies of PQ3 and PQ5 may be attributable to their bulky QA groups, which may cause reduced affinities for the agonist-binding pocket and/or interfere with receptor conformational changes required for channel gating. Open-channel blockers with low agonist potencies may be favorable in some applications, since their pharmacological effects are simpler and more predictable.
Supplementary file pone.0112088.s004.tif: Figure S4 The agonist potencies of PQ1–5. (A) Representative traces of single-channel recordings in the presence of individual PEG-QA (10 µM in the pipette solution without other agonists). Pipette potential was held at +70 mV, and the currents are shown as upward deflections. (B) The effect of QA structure on the open probability of the AChR (defined as [drawing 1] , where N max is the maximal number of simultaneously open channels and Po,i is the fraction of time in which i channels open simultaneously). Data are plotted in log-scale in order to present the low NPo values of PQ3 and PQ5. (C) The effect of QA structure on the mean open time of the AChR. […]

[3] = previously reported open-channel blockers
[4] = previously reported open-channel blockers, ref Table S1 refs 1-14, read-out: Kd (= k–B/k+B)
[5] = 100 µM ACh, +70 mV, predominant blockade mode
[6] = predominant blockade mode, 100 µM ACh, +70 mV, read-out: Kd (= k–B/k+B) for the open AChR pore
[7] = 20 µM blocker, held at +50, +70, +100, +130 mV

T1 sequence (P04756 21-457 V433A): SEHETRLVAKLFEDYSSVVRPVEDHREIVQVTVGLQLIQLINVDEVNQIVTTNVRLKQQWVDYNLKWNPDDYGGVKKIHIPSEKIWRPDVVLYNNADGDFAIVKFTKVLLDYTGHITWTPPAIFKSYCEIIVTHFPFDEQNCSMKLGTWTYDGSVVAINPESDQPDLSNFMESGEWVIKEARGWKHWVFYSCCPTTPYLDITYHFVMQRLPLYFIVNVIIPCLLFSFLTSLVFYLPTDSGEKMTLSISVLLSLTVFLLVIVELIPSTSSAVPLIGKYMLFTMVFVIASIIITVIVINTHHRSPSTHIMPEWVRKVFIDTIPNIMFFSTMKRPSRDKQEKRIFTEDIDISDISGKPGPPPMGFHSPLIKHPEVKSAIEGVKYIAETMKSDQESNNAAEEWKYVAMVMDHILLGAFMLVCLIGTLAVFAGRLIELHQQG
T1 sequence (P09690 24-501): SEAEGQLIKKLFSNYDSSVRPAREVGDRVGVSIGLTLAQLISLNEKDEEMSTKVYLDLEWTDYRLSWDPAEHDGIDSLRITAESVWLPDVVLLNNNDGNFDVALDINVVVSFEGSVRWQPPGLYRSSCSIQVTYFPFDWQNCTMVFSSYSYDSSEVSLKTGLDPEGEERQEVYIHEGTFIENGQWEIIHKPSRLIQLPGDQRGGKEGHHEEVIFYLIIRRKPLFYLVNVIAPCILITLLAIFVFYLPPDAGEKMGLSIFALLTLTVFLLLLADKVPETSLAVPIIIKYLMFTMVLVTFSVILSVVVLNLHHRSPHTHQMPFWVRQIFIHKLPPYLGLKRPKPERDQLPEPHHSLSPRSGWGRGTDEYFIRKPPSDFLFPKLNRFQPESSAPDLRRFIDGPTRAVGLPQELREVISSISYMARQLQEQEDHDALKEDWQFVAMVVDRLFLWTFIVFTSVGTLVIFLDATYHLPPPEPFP
T1 sequence (P02716 25-520): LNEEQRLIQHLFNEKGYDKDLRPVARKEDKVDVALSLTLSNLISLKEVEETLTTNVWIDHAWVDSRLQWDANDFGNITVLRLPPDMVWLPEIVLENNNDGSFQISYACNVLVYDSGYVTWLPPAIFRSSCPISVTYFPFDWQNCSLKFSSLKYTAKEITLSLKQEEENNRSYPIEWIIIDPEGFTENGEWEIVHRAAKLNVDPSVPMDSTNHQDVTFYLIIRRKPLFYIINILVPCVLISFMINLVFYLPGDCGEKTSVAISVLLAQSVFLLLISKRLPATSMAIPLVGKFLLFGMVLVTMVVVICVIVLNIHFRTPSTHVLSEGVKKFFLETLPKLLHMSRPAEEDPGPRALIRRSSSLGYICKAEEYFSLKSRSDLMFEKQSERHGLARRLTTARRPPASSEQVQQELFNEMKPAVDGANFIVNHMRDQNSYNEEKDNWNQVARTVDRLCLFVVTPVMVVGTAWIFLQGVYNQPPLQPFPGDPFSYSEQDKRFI
T1 sequence (P20782 21-493): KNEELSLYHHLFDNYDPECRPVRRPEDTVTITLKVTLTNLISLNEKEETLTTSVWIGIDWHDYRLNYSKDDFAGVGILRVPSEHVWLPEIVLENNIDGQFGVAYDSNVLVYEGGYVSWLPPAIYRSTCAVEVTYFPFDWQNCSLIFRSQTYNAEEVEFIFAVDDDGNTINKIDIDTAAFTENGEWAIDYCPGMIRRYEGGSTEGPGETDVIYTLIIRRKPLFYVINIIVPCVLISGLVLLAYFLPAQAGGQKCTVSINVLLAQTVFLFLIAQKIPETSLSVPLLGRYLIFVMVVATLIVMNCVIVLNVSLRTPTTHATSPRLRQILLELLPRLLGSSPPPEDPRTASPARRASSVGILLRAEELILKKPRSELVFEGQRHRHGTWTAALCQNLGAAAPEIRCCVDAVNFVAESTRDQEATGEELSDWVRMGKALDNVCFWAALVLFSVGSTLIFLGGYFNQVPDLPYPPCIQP

Compound: COc1cc2c3cc1Oc1cc(ccc1O)C[C@@H]1c4c(cc(OC)c(O)c4Oc4ccc(cc4)C[C@@H]3N(C)CC2)CC[N+]1(C)C [(+)-tubocurarine]
- blocking rate constant k+B (muscle-type AChR; [3]): 3 µM⁻¹ s⁻¹
- unblocking rate constant k–B (muscle-type AChR; [3]): 0.8 s⁻¹
- Kd (muscle-type AChR; [4]): 0.27 µM

Compound: Br.C[N+](C)(C)CCCCCNCC12CC3CC(CC(C3)C1)C2.[Br-] [IEM-1460]
- blocking rate constant k+B (muscle-type AChR; [3]): 72 µM⁻¹ s⁻¹
- unblocking rate constant k–B (muscle-type AChR; [3]): 858 s⁻¹
- Kd (muscle-type AChR; [4]): 12 µM

Compound: C[C@]12N[C@H](Cc3ccccc31)c1ccccc12 [MK-801]
- blocking rate constant k+B (muscle-type AChR; [3]): 20 µM⁻¹ s⁻¹
- unblocking rate constant k–B (muscle-type AChR; [3]): 48 s⁻¹
- Kd (muscle-type AChR; [4]): 2.4 µM

Compound: C[N+](C)(C)CCOCCOCCOCCOCCOCCOCCOCC[N+](C)(C)C [PQ0]
- Kd (muscle-type AChR; prototype PEG-trimethylammonium blockers, read-out: Kd for the AChR pore): 9 ± 2 µM

Compound: C[N+]1(CCOCCOCCOCCOCCOCCOCCOCC[N+]2(C)CCCC2)CCCC1 [PQ1]
- effect on apparent mean open time (τapp) ([1]; +70 mV): dose-dependent decrease
- unblocking rate constant k–B [1, 5]: 64 ± 14 s⁻¹
- blocking rate constant k+B [1, 5]: 20 ± 4 µM⁻¹ s⁻¹
- predominant blockade mode ([1]; faster- vs slower-dissociation mode): faster-dissociation mode
- Kd [1, 6]: 3000 ± 1000 nM

Compound: C[N+]1(CCOCCOCCOCCOCCOCCOCCOCC[N+]2(C)CCCCC2)CCCCC1 [PQ2]
- Kd [1]: 80 ± 90 nM
- effect on apparent mean open time (τapp) ([1]; +70 mV): dose-dependent decrease
- unblocking rate constant k–B [1, 5]: 2 ± 2 s⁻¹
- blocking rate constant k+B [1, 5]: 29 ± 7 µM⁻¹ s⁻¹

Compound: CC[N+]1(CCOCCOCCOCCOCCOCCOCCOCC[N+]2(CC)CCCCC2)CCCCC1 [PQ3]
- effect on apparent mean open time (τapp) ([1]; +70 mV): dose-dependent decrease
- unblocking rate constant k–B [1, 5]: 4 ± 2 s⁻¹
- blocking rate constant k+B [1, 5]: 22 ± 6 µM⁻¹ s⁻¹
- Kd [1, 6]: 170 ± 120 nM
- agonist potency (channel open probability and opening duration with compound alone) [2]: poor agonists

Compound: CC[N+](CC)(CC)CCOCCOCCOCCOCCOCCOCCOCC[N+](CC)(CC)CC [PQ4]
- effect on apparent mean open time (τapp) ([1]; +70 mV): dose-dependent decrease
- unblocking rate constant k–B [1, 5]: 4 ± 3 s⁻¹
- blocking rate constant k+B [1, 5]: 22 µM⁻¹ s⁻¹
- Kd [1, 6]: 190 ± 150 nM

Compound: CCC[N+](C)(CCC)CCOCCOCCOCCOCCOCCOCCOCC[N+](C)(CCC)CCC [PQ5]
- voltage dependence of k+B [1, 7]: increases with membrane hyperpolarization
- voltage dependence of τapp [1, 7]: decreases with hyperpolarizing
- effect on apparent mean open time (τapp) ([1]; +70 mV): dose-dependent decrease
- unblocking rate constant k–B [1, 5]: 2 ± 1 s⁻¹
- blocking rate constant k+B [1, 5]: 15 ± 1 µM⁻¹ s⁻¹
- Kd [1, 6]: 120 ± 90 nM
- agonist potency (channel open probability and opening duration with compound alone) [2]: poor agonists

Compound: Cc1cccc(C)c1NC(=O)C[N+](C)(C)C [QX-222]
- blocking rate constant k+B (muscle-type AChR; [3]): 21 µM⁻¹ s⁻¹
- unblocking rate constant k–B (muscle-type AChR; [3]): ~ 600 s^−1
- Kd (muscle-type AChR; [4]): ~30 µM

Compound: CC[N+](CC)(CC)CC(=O)Nc1c(C)cccc1C [QX-314]
- blocking rate constant k+B (muscle-type AChR; [3]): 19 µM⁻¹ s⁻¹
- unblocking rate constant k–B (muscle-type AChR; [3]): ~ 30 s^−1
- Kd (muscle-type AChR; [4]): ~1 µM

Compound: CC(=O)OCC[N+](C)(C)C [acetylcholine]
- blocking rate constant k+B (muscle-type AChR; [3]): 37 µM⁻¹ s⁻¹
- unblocking rate constant k–B (muscle-type AChR; [3]): 56000 s⁻¹
- Kd (muscle-type AChR; [4]): 1200 µM

Compound: CC(C)(C)NCC(O)c1ccc(O)c(CO)c1 (stereo not shown) [albuterol]
- blocking rate constant k+B (muscle-type AChR; [3]): 43 µM⁻¹ s⁻¹
- unblocking rate constant k–B (muscle-type AChR; [3]): 1042 s⁻¹
- Kd (muscle-type AChR; [4]): 24 µM

Compound: C[N+](C)(C)CCO [choline]
- Kd (muscle-type AChR; [4]): 12500 µM

Compound: CNC1(c2ccccc2Cl)CCCCC1=O (stereo not shown) [ketamine]
- blocking rate constant k+B (muscle-type AChR; [3]): 3 µM⁻¹ s⁻¹
- unblocking rate constant k–B (muscle-type AChR; [3]): 100 s⁻¹
- Kd (muscle-type AChR; [4]): 33 µM

Compound: Nc1nnc(-c2cccc(Cl)c2Cl)c(N)n1 [lamotrigine]
- blocking rate constant k+B (muscle-type AChR; [3]): 6.2 µM⁻¹ s⁻¹
- unblocking rate constant k–B (muscle-type AChR; [3]): 575 s⁻¹
- Kd (muscle-type AChR; [4]): 93 µM

Compound: CNC(=O)Oc1ccc2c(c1)[C@]1(C)CCN(C)[C@@H]1N2C [physostigmine]
- blocking rate constant k+B (muscle-type AChR; [3]): 20 µM⁻¹ s⁻¹
- unblocking rate constant k–B (muscle-type AChR; [3]): 450 s⁻¹
- Kd (muscle-type AChR; [4]): 23 µM

Compound: CCN(CC)CCOC(=O)c1ccc(N)cc1 [procaine]
- blocking rate constant k+B (muscle-type AChR; [3]): 2 µM⁻¹ s⁻¹
- unblocking rate constant k–B (muscle-type AChR; [3]): 200 s⁻¹
- Kd (muscle-type AChR; [4]): 100 µM

Compound: CN1CCCN=C1/C=C/c1cccs1 [pyrantel]
- blocking rate constant k+B (muscle-type AChR; [3]): 80 µM⁻¹ s⁻¹
- unblocking rate constant k–B (muscle-type AChR; [3]): 667 s⁻¹
- Kd (muscle-type AChR; [4]): 8 µM

Compound: CC[N+](CC)(CC)CC [tetraethylammonium]
- Kd (muscle-type AChR; read-out: Kd (= k–B/k+B)): 2700 µM
